Data from PubChem BioAssay AID256 (DTP/NCI, 2004).
“And” between values parts separate entries of the source, which are not always exact repeats. Equal values may be shown once. Inconclusive results and toxic doses are left out. Rule for the calls: active = survival T/C of 150% or more; inactive = T/C below 125% in these data.

Tested on: CD2F1 mice, L1210 leukemia ip, survival T/C
Test: NCI In Vivo Anticancer Drug Screen. Data for tumor model L1210 Leukemia (intraperitoneal) in CD2F1 (CDF1) mice
Settings: higher = longer survival
Method in brief: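 Transplantable tumor in mice; compound-treated vs vehicle-treated groups. Read-out = treated/control ratio of the measured endpoint.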

[1] = endpoint: mean survival time, dose: 12.5 mg/kg/injection, schedule: Q01DX009 (ip), vehicle: saline
[2] = endpoint: mean survival time, dose: 100.0 mg/kg/injection, schedule: Q01DX001 (ip), vehicle: saline with Tween-80
[3] = endpoint: mean survival time, dose: 100.0 mg/kg/injection, schedule: Q01DX009 (ip), vehicle: saline with Tween-80
[4] = endpoint: mean survival time, dose: 100.0 mg/kg/injection, schedule: Q04DX003 (ip), vehicle: saline with Tween-80
[5] = endpoint: mean survival time, dose: 200.0 mg/kg/injection, schedule: Q01DX001 (ip), vehicle: saline with Tween-80
[6] = endpoint: mean survival time, dose: 200.0 mg/kg/injection, schedule: Q01DX009 (ip), vehicle: saline with Tween-80
[7] = endpoint: mean survival time, dose: 200.0 mg/kg/injection, schedule: Q04DX003 (ip), vehicle: saline with Tween-80
[8] = endpoint: mean survival time, dose: 400.0 mg/kg/injection, schedule: Q04DX003 (ip), vehicle: saline with Tween-80
[9] = endpoint: mean survival time, dose: 100.0 mg/kg/injection, schedule: Q01DX009 (ip), vehicle: saline
[10] = endpoint: mean survival time, dose: 400.0 mg/kg/injection, schedule: Q01DX009 (ip), vehicle: saline with Tween-80
[11] = endpoint: mean survival time, dose: 200.0 mg/kg/injection, schedule: Q01DX009 (ip), vehicle: saline
[12] = endpoint: mean survival time, dose: 400.0 mg/kg/injection, schedule: Q01DX009 (ip), vehicle: saline

Measured: T/C

CCCCCCCCCCCCNC(=O)c1cc[n+](C)cc1
inactive: [1] 95 % of control | endpoint: mean survival time, dose: 12.5 mg/kg/injection, schedule: Q04DX003 (ip), vehicle: saline 98 % of control | endpoint: mean survival time, dose: 25.0 mg/kg/injection, schedule: Q04DX003 (ip), vehicle: saline 95 % of control | endpoint: mean survival time, dose: 50.0 mg/kg/injection, schedule: Q04DX003 (ip), vehicle: saline 94 % of control

O=C(O)/C(=C\c1cccc([N+](=O)[O-])c1)c1ccccc1
inactive: [2] 97 % of control | [3] 91 % of control and 107 % of control | endpoint: mean survival time, dose: 100.0 mg/kg/injection, schedule: Q04DX002 (ip), vehicle: saline with Tween-80 100 % of control and 105 % of control | [4] 100 % of control | [5] 96 % of control | [6] 93 % of control | endpoint: mean survival time, dose: 200.0 mg/kg/injection, schedule: Q04DX002 (ip), vehicle: saline with Tween-80 101 % of control and 103 % of control | [7] 100 % of control | endpoint: mean survival time, dose: 400.0 mg/kg/injection, schedule: Q04DX002 (ip), vehicle: saline with Tween-80 90 % of control and 92 % of control | [8] 100 % of control

CCN1C2CCC1CC(O)C2 (stereo not drawn)
inactive: endpoint: mean survival time, dose: 100.0 mg/kg/injection, schedule: Q04DX002 (ip), vehicle: saline 94 % of control | endpoint: mean survival time, dose: 200.0 mg/kg/injection, schedule: Q04DX002 (ip), vehicle: saline 94 % of control | endpoint: mean survival time, dose: 400.0 mg/kg/injection, schedule: Q04DX002 (ip), vehicle: saline 105 % of control

CCCC1=NC(C)(C)CO1
inactive: endpoint: mean survival time, dose: 100.0 mg/kg/injection, schedule: Q04DX003 (ip), vehicle: saline 92 % of control | endpoint: mean survival time, dose: 200.0 mg/kg/injection, schedule: Q04DX003 (ip), vehicle: saline 94 % of control | endpoint: mean survival time, dose: 400.0 mg/kg/injection, schedule: Q04DX003 (ip), vehicle: saline 105 % of control

Nc1nc(Cl)nc2c1ncn2C1OC(CO)C(O)C1O (stereo not drawn)
inactive: endpoint: mean survival time, dose: 6.25 mg/kg/injection, schedule: Q04DX002 (ip), vehicle: saline 94 % of control | endpoint: mean survival time, dose: 12.5 mg/kg/injection, schedule: Q04DX002 (ip), vehicle: saline 109 % of control | endpoint: mean survival time, dose: 25.0 mg/kg/injection, schedule: Q04DX002 (ip), vehicle: saline 105 % of control | [9] 121 % of control

O=[N+]([O-])c1ccc(C2N(Cc3ccc(Cl)cc3)CCN2Cc2ccc(Cl)cc2)cc1
inactive: [2] 92 % of control | [3] 95 % of control | [4] 98 % of control | [5] 96 % of control | [6] 88 % of control | [7] 98 % of control | endpoint: mean survival time, dose: 400.0 mg/kg/injection, schedule: Q01DX001 (ip), vehicle: saline with Tween-80 93 % of control | [10] 91 % of control | [8] 90 % of control

COc1ccc(CCNC(=O)Cc2cc(OC)c(OC)cc2Br)cc1OC
inactive: [4] 94 % of control | [7] 100 % of control | [8] 96 % of control

CC(=O)OC1CC(C)CCC1C(C)C (stereo not drawn)
inactive: [4] 113 % of control | [7] 106 % of control

COc1cc(NC(C)CCCN)c2ncccc2c1 (stereo not drawn)
inactive: endpoint: mean survival time, dose: 12.5 mg/kg/injection, schedule: Q01DX009 (ip), vehicle: saline sonified 102 % of control | endpoint: mean survival time, dose: 12.5 mg/kg/injection, schedule: Q04DX003 (ip), vehicle: saline with Tween-80 104 % of control | endpoint: mean survival time, dose: 25.0 mg/kg/injection, schedule: Q01DX009 (ip), vehicle: saline sonified 97 % of control | endpoint: mean survival time, dose: 25.0 mg/kg/injection, schedule: Q04DX003 (ip), vehicle: saline with Tween-80 93 % of control | endpoint: mean survival time, dose: 50.0 mg/kg/injection, schedule: Q01DX009 (ip), vehicle: saline sonified 102 % of control | endpoint: mean survival time, dose: 50.0 mg/kg/injection, schedule: Q04DX003 (ip), vehicle: saline with Tween-80 101 % of control

CN1C2CCC1CC(OC(=O)c1ccccc1)C2 (stereo not drawn)
inactive: endpoint: mean survival time, dose: 100.0 mg/kg/injection, schedule: Q04DX002 (ip), vehicle: Klucel (hydroxypropylcellulose) (HPC) 121 % of control | endpoint: mean survival time, dose: 200.0 mg/kg/injection, schedule: Q04DX002 (ip), vehicle: Klucel (hydroxypropylcellulose) (HPC) 90 % of control | endpoint: mean survival time, dose: 400.0 mg/kg/injection, schedule: Q04DX002 (ip), vehicle: Klucel (hydroxypropylcellulose) (HPC) 100 % of control

COc1cc(C)ccc1Cl
inactive: [3] 101 % of control | [6] 118 % of control

CCOC(=O)C1C2CC(O)C(O)CC21 (stereo not drawn)
inactive: endpoint: median survival time, dose: 25.0 mg/kg/injection, schedule: Q04DX003 (ip), vehicle: saline with Tween-80 90 % of control | endpoint: median survival time, dose: 50.0 mg/kg/injection, schedule: Q04DX003 (ip), vehicle: saline with Tween-80 90 % of control

CSc1ccccc1C(=O)O
inactive: [4] 102 % of control and 95 % of control | [7] 96 % of control and 101 % of control | [8] 102 % of control and 101 % of control

Cc1noc(C)c1CO
inactive: [9] 100 % of control | [11] 101 % of control | [12] 101 % of control

CN1NC=Nc2c1[nH]cnc2=S
inactive: endpoint: mean survival time, dose: 75.0 mg/kg/injection, schedule: Q01DX001 (ip), vehicle: other 89 % of control | endpoint: mean survival time, dose: 150.0 mg/kg/injection, schedule: Q01DX001 (ip), vehicle: other 96 % of control

CCCCCC[Si]
inactive: endpoint: mean survival time, dose: 75.0 mg/kg/injection, schedule: Q01DX009 (ip), vehicle: saline with Tween-80 94 % of control | endpoint: mean survival time, dose: 150.0 mg/kg/injection, schedule: Q01DX009 (ip), vehicle: saline with Tween-80 94 % of control | endpoint: mean survival time, dose: 300.0 mg/kg/injection, schedule: Q01DX009 (ip), vehicle: saline with Tween-80 98 % of control

CC(=O)c1cc(C)c[n+](C2OC(COC(=O)c3ccccc3)C(OC(=O)c3ccccc3)C2O)c1 (stereo not drawn)
inactive: endpoint: mean survival time, dose: 3.13 mg/kg/injection, schedule: Q01DX005 (ip), vehicle: water 100 % of control | endpoint: mean survival time, dose: 6.25 mg/kg/injection, schedule: Q01DX005 (ip), vehicle: water 98 % of control | endpoint: mean survival time, dose: 12.5 mg/kg/injection, schedule: Q01DX005 (ip), vehicle: water 106 % of control | endpoint: mean survival time, dose: 25.0 mg/kg/injection, schedule: Q01DX005 (ip), vehicle: water 93 % of control | endpoint: mean survival time, dose: 50.0 mg/kg/injection, schedule: Q01DX005 (ip), vehicle: water 100 % of control and 101 % of control | endpoint: mean survival time, dose: 100.0 mg/kg/injection, schedule: Q01DX005 (ip), vehicle: water 93 % of control

Cc1nnc(NS(=O)(=O)c2ccc(N=Nc3nc4[nH]c(N)nc(=S)c4[nH]3)cc2)s1
inactive: endpoint: mean survival time, dose: 12.5 mg/kg/injection, schedule: Q01DX009 (ip), vehicle: Klucel (hydroxypropylcellulose) (HPC) 110 % of control | endpoint: mean survival time, dose: 25.0 mg/kg/injection, schedule: Q01DX009 (ip), vehicle: Klucel (hydroxypropylcellulose) (HPC) 116 % of control | endpoint: mean survival time, dose: 50.0 mg/kg/injection, schedule: Q01DX009 (ip), vehicle: Klucel (hydroxypropylcellulose) (HPC) 122 % of control

S=C(NC1CCCCC1)N1CCC(CCCC2CCN(C(=S)NC3CCCCC3)CC2)CC1
inactive: [4] 87 % of control | [7] 94 % of control | [8] 102 % of control

COC(=O)CC(=O)OCC1C=CCC=C1
inactive: [3] 98 % of control | [6] 98 % of control | [10] 100 % of control

COc1ccc(C(O)(c2ccccc2)C(C)O)cc1 (stereo not drawn)
inactive: [4] 101 % of control | [7] 98 % of control | [8] 98 % of control

C=CCc1cn(C2CC(O)C(CO)O2)c(=O)[nH]c1=O (stereo not drawn)
inactive: [1] 94 % of control and 104 % of control | endpoint: mean survival time, dose: 25.0 mg/kg/injection, schedule: Q01DX009 (ip), vehicle: saline 101 % of control and 107 % of control | endpoint: mean survival time, dose: 50.0 mg/kg/injection, schedule: Q01DX009 (ip), vehicle: saline 95 % of control and 108 % of control | [9] 103 % of control and 110 % of control | [11] 104 % of control and 106 % of control | [12] 118 % of control and 111 % of control (2×)

CC12CCC3C(CC=C4CC(OC(=N)N)CCC43C)C1CCC2=O (stereo not drawn)
inactive: endpoint: mean survival time, dose: 75.0 mg/kg/injection, schedule: Q01DX001 (ip), vehicle: saline 98 % of control | endpoint: mean survival time, dose: 150.0 mg/kg/injection, schedule: Q01DX001 (ip), vehicle: saline 101 % of control
